PubChem BioAssay AID2060892 (Molecular Pharmacology Branch, DTP, NCI, 2025)

Test system: HOP-62 complex spheroids with HUVEC/MSC, viability
Assay: Anticancer human tumor HOP-62 cell line growth inhibition [RAS];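 note: spheroids exposed to agents for seven days before readout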;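 for viability, T/C: 100% = DMSO vehicle control viability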
Details: for IC50: curve of first compound; for viability, T/C: stronger effect = lower value
Summary of the method: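 Agents were tested in combination matrices in half-log decrements from a top concentration at or near clinical Cmax (10 microM if undetermined). Targets were multi-cell spheroids of tumour lines plus HUVEC and MSC stromal cells.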

[1] = second compound 0.000949 µM, first compound 0.0316 µM
[2] = second compound 0.000949 µM, first compound 0.1 µM
[3] = second compound 0.000949 µM, first compound 0.316 µM
[4] = second compound 0.000949 µM, first compound 1 µM
[5] = second compound 0.003 µM, first compound 0.0316 µM
[6] = second compound 0.003 µM, first compound 0.1 µM
[7] = second compound 0.003 µM, first compound 0.316 µM
[8] = second compound 0.003 µM, first compound 1 µM
[9] = second compound 0.00949 µM, first compound 0.0316 µM
[10] = second compound 0.00949 µM, first compound 0.1 µM
[11] = second compound 0.00949 µM, first compound 0.316 µM
[12] = second compound 0.00949 µM, first compound 1 µM
[13] = second compound 0.03 µM, first compound 0.0316 µM
[14] = second compound 0.03 µM, first compound 0.1 µM
[15] = second compound 0.03 µM, first compound 0.316 µM
[16] = second compound 0.03 µM, first compound 1 µM
[17] = second compound 0.0949 µM, first compound 0.0316 µM
[18] = second compound 0.0949 µM, first compound 0.1 µM
[19] = second compound 0.0949 µM, first compound 0.316 µM
[20] = second compound 0.0949 µM, first compound 1 µM
[21] = second compound 0.3 µM, first compound 0.0316 µM
[22] = second compound 0.3 µM, first compound 0.1 µM
[23] = second compound 0.3 µM, first compound 0.316 µM
[24] = second compound 0.3 µM, first compound 1 µM

`CC(=O)OC12COC1CC(O)C1(C)C(=O)C(O)C3=C(C)C(OC(=O)C(O)C(NC(=O)OC(C)(C)C)c4ccccc4)CC(O)(C(OC(=O)c4ccccc4)C21)C3(C)C` (stereo unspecified) + CCn1c(-c2cccnc2C(C)OC)c2c3cc(ccc31)N1CCOC(CC(NC(=O)C(C(C)C)N(C)C(=O)C3(F)CCN(C(=O)C#CC(C)(C)N(C)C)CC3)C(=O)N3CCCC(N3)C(=O)OCC(C)(C)C2)C1 gave an IC50 (second compound 0.000949 µM) of less than 31.6 nM, an IC50 (second compound 0.003 µM) of less than 31.6 nM and an IC50 (second compound 0.00949 µM) of less than 31.6 nM. It also gave an IC50 (second compound 0.03 µM) of less than 31.6 nM, an IC50 (second compound 0.0949 µM) of less than 31.6 nM and an IC50 (second compound 0.3 µM) of less than 31.6 nM. For the same molecule, the viability, T/C [1] was 31%, the viability, T/C [2] was 29.6% and the viability, T/C [3] was 20.6%. It also gave a viability, T/C [4] of 34.7%, a viability, T/C (second compound 0.000949 µM, first compound 3.16 µM) of 48.4% and a viability, T/C (second compound 0.000949 µM, first compound 10 µM) of 45.6%. For the same molecule, the viability, T/C [5] was 32.6%, the viability, T/C [6] was 32.1% and the viability, T/C [7] was 37%. It also gave a viability, T/C [8] of 33.3%, a viability, T/C (second compound 0.003 µM, first compound 3.16 µM) of 52.1% and a viability, T/C (second compound 0.003 µM, first compound 10 µM) of 39.7%. The viability, T/C [9] was 30.8%, the viability, T/C [10] was 31.6% and the viability, T/C [11] was 29.4%. The viability, T/C [12] was 36.3%, the viability, T/C (second compound 0.00949 µM, first compound 3.16 µM) was 39.3% and the viability, T/C (second compound 0.00949 µM, first compound 10 µM) was 43.2%. It also gave a viability, T/C [13] of 31.4%, a viability, T/C [14] of 32.9% and a viability, T/C [15] of 31%. The viability, T/C [16] was 35.4%, the viability, T/C (second compound 0.03 µM, first compound 3.16 µM) was 33.1% and the viability, T/C (second compound 0.03 µM, first compound 10 µM) was 46.4%. It also gave a viability, T/C [17] of 34.2%, a viability, T/C [18] of 34.1% and a viability, T/C [19] of 36.6%. The viability, T/C [20] was 37.3%, the viability, T/C (second compound 0.0949 µM, first compound 3.16 µM) was 34.9% and the viability, T/C (second compound 0.0949 µM, first compound 10 µM) was 42.1%. It also gave a viability, T/C [21] of 28.1%, a viability, T/C [22] of 40.2% and a viability, T/C [23] of 31.8%. It also gave a viability, T/C [24] of 37.9%, a viability, T/C (second compound 0.3 µM, first compound 3.16 µM) of 33.5% and a viability, T/C (second compound 0.3 µM, first compound 10 µM) of 36.9%.

Molecule `CCc1c2c(nc3ccc(O)cc13)-c1cc3c(c(=O)n1C2)COC(=O)[C@]3(O)CC` + CCn1c(-c2cccnc2C(C)OC)c2c3cc(ccc31)N1CCOC(CC(NC(=O)C(C(C)C)N(C)C(=O)C3(F)CCN(C(=O)C#CC(C)(C)N(C)C)CC3)C(=O)N3CCCC(N3)C(=O)OCC(C)(C)C2)C1 has an IC50 (second compound 0.000949 µM) of less than 0.949 nM, an IC50 (second compound 0.003 µM) of less than 0.949 nM and an IC50 (second compound 0.00949 µM) of less than 0.949 nM. For the same molecule, the IC50 (second compound 0.03 µM) was less than 0.949 nM, the IC50 (second compound 0.0949 µM) was less than 0.949 nM and the IC50 (second compound 0.3 µM) was less than 0.949 nM. It also gave a viability, T/C (second compound 0.000949 µM, first compound 0.000949 µM) of 45%, a viability, T/C (second compound 0.000949 µM, first compound 0.003 µM) of 15.7% and a viability, T/C (second compound 0.000949 µM, first compound 0.00949 µM) of 6.01%. For the same molecule, the viability, T/C (second compound 0.000949 µM, first compound 0.03 µM) was 6.3%, the viability, T/C (second compound 0.000949 µM, first compound 0.0949 µM) was 4.47% and the viability, T/C (second compound 0.000949 µM, first compound 0.3 µM) was 15.6%. The viability, T/C (second compound 0.003 µM, first compound 0.000949 µM) was 45.6%, the viability, T/C (second compound 0.003 µM, first compound 0.003 µM) was 14.3% and the viability, T/C (second compound 0.003 µM, first compound 0.00949 µM) was 7.48%. For the same molecule, the viability, T/C (second compound 0.003 µM, first compound 0.03 µM) was 7.59%, the viability, T/C (second compound 0.003 µM, first compound 0.0949 µM) was 5.27% and the viability, T/C (second compound 0.003 µM, first compound 0.3 µM) was 2.57%. The viability, T/C (second compound 0.00949 µM, first compound 0.000949 µM) was 41.5%, the viability, T/C (second compound 0.00949 µM, first compound 0.003 µM) was 13.7% and the viability, T/C (second compound 0.00949 µM, first compound 0.00949 µM) was 8.71%. The viability, T/C (second compound 0.00949 µM, first compound 0.03 µM) was 5.6%, the viability, T/C (second compound 0.00949 µM, first compound 0.0949 µM) was 3.2% and the viability, T/C (second compound 0.00949 µM, first compound 0.3 µM) was 2.48%. It also gave a viability, T/C (second compound 0.03 µM, first compound 0.000949 µM) of 41%, a viability, T/C (second compound 0.03 µM, first compound 0.003 µM) of 14.1% and a viability, T/C (second compound 0.03 µM, first compound 0.00949 µM) of 7.78%. For the same molecule, the viability, T/C (second compound 0.03 µM, first compound 0.03 µM) was 6.23%, the viability, T/C (second compound 0.03 µM, first compound 0.0949 µM) was 2.8% and the viability, T/C (second compound 0.03 µM, first compound 0.3 µM) was 3.13%. For the same molecule, the viability, T/C (second compound 0.0949 µM, first compound 0.000949 µM) was 36.4%, the viability, T/C (second compound 0.0949 µM, first compound 0.003 µM) was 14.8% and the viability, T/C (second compound 0.0949 µM, first compound 0.00949 µM) was 9.82%. It also gave a viability, T/C (second compound 0.0949 µM, first compound 0.03 µM) of 6.01%, a viability, T/C (second compound 0.0949 µM, first compound 0.0949 µM) of 2.96% and a viability, T/C (second compound 0.0949 µM, first compound 0.3 µM) of 2.45%. The viability, T/C (second compound 0.3 µM, first compound 0.000949 µM) was 28.9%, the viability, T/C (second compound 0.3 µM, first compound 0.003 µM) was 13.9% and the viability, T/C (second compound 0.3 µM, first compound 0.00949 µM) was 11%. It also gave a viability, T/C (second compound 0.3 µM, first compound 0.03 µM) of 4.25%, a viability, T/C (second compound 0.3 µM, first compound 0.0949 µM) of 3.87% and a viability, T/C (second compound 0.3 µM, first compound 0.3 µM) of 2.14%.

For `Nc1ccn(C2OC(CO)C(O)C2(F)F)c(=O)n1` (stereo unspecified) + CCn1c(-c2cccnc2C(C)OC)c2c3cc(ccc31)N1CCOC(CC(NC(=O)C(C(C)C)N(C)C(=O)C3(F)CCN(C(=O)C#CC(C)(C)N(C)C)CC3)C(=O)N3CCCC(N3)C(=O)OCC(C)(C)C2)C1, the IC50 (second compound 0.000949 µM) was 14 nM, the IC50 (second compound 0.003 µM) was 9.19 nM and the IC50 (second compound 0.00949 µM) was 8.18 nM. It also gave an IC50 (second compound 0.03 µM) of 10.6 nM, an IC50 (second compound 0.0949 µM) of 9.58 nM and an IC50 (second compound 0.3 µM) of 8.77 nM. The viability, T/C (second compound 0.000949 µM, first compound 0.00316 µM) was 111%, the viability, T/C (second compound 0.000949 µM, first compound 0.01 µM) was 66.9% and the viability, T/C [1] was 9.65%. The viability, T/C [2] was 7.4%, the viability, T/C [3] was 7.76% and the viability, T/C [4] was 5.24%. It also gave a viability, T/C (second compound 0.003 µM, first compound 0.00316 µM) of 104%, a viability, T/C (second compound 0.003 µM, first compound 0.01 µM) of 45.6% and a viability, T/C [5] of 18.4%. It also gave a viability, T/C [6] of 7.14%, a viability, T/C [7] of 8.39% and a viability, T/C [8] of 5.94%. The viability, T/C (second compound 0.00949 µM, first compound 0.00316 µM) was 87.8%, the viability, T/C (second compound 0.00949 µM, first compound 0.01 µM) was 41% and the viability, T/C [9] was 22.8%. It also gave a viability, T/C [10] of 10.3%, a viability, T/C [11] of 10.9% and a viability, T/C [12] of 5.88%. For the same molecule, the viability, T/C (second compound 0.03 µM, first compound 0.00316 µM) was 90%, the viability, T/C (second compound 0.03 µM, first compound 0.01 µM) was 51.2% and the viability, T/C [13] was 22.7%. For the same molecule, the viability, T/C [14] was 8.44%, the viability, T/C [15] was 4.99% and the viability, T/C [16] was 7.65%. It also gave a viability, T/C (second compound 0.0949 µM, first compound 0.00316 µM) of 83.9%, a viability, T/C (second compound 0.0949 µM, first compound 0.01 µM) of 48.5% and a viability, T/C [17] of 21.7%. The viability, T/C [18] was 8.95%, the viability, T/C [19] was 5.53% and the viability, T/C [20] was 6.69%. The viability, T/C (second compound 0.3 µM, first compound 0.00316 µM) was 77.8%, the viability, T/C (second compound 0.3 µM, first compound 0.01 µM) was 45.9% and the viability, T/C [21] was 22.9%. For the same molecule, the viability, T/C [22] was 8.24%, the viability, T/C [23] was 8.97% and the viability, T/C [24] was 8.38%.
